{"source": "PubChem BioAssay AID1645848", "data": [{"conditions": "buffer; pH 7.4; 6.0 h; 150.0 µM", "units": {"solubility kinetic": "µg/mL"}, "values": [{"smiles": "Cc1ccc(S(=O)(=O)Nc2cnccc2C(=O)Nc2ccc(-c3nc4ccccc4[nH]3)cc2)cc1", "solubility kinetic": "< 1"}, {"smiles": "c1ccc2[nH]c(Nc3nc(-c4ccncc4)nc4ccccc34)nc2c1", "solubility kinetic": "< 1"}, {"smiles": "Oc1ccc(Nc2nc(-c3ccncc3)nc3ccccc23)cc1F", "solubility kinetic": "< 1"}, {"smiles": "Cc1cnc(-c2ccccc2C(C)C)nc1NCC1CCN(c2cccnc2)C1", "note": "(stereo not drawn)", "solubility kinetic": 7.52}, {"smiles": "CC(=O)c1c(C)[nH]c(C(=O)Nc2cccc(S(=O)(=O)Nc3cccc(C#N)c3)c2)c1C", "solubility kinetic": 21}, {"smiles": "COc1ccc(C(=O)N[C@@H]2CCC[C@@H]2C(=O)N2CCC(Cc3ccccc3)CC2)cc1", "solubility kinetic": 17.9}, {"smiles": "O=C1/C(=C\\c2ccccc2)C[C@@]2(O)C3Cc4ccc(O)c5c4[C@@]2(CCN3CC2CC2)[C@H]1O5", "solubility kinetic": "> 42"}, {"smiles": "O=C1CCCC2=C1C(c1[nH]ncc1Cl)N=C(Nc1nc3c(Cl)cccc3o1)N2", "note": "(stereo not drawn)", "solubility kinetic": 1.83}, {"smiles": "CCN(CC)C(=O)c1ccc(O)c(OC)c1", "solubility kinetic": 27.3}, {"smiles": "Cn1c(=O)c2cc(C(=O)NCCCN3CCN(c4ccccc4F)CC3)sc2c2ccccc21", "solubility kinetic": "< 1"}, {"smiles": "Cc1cc(-c2nnc3n2CCCCC3)c(C)n1-c1ccc(C(F)(F)F)cc1", "solubility kinetic": 43.3}, {"smiles": "N#Cc1ccc(C(=O)Nc2ccc(Cl)c(-c3nc4cc(Cl)ccc4o3)c2)c(F)c1", "solubility kinetic": "< 1"}, {"smiles": "FC(F)(F)c1ccc(CN2CCNc3cc(Nc4ccccc4)ncc3C2)cc1", "solubility kinetic": "< 1"}, {"smiles": "CC(C)N(CCC(=O)c1ccc2ccccc2c1)Cc1ccccc1", "solubility kinetic": 13.4}, {"smiles": "NC(=O)C1CCN(c2ncc(-c3ccc4c(c3)OCCO4)s2)CC1", "solubility kinetic": 4.52}, {"smiles": "C#CCNC(=O)c1nc(-c2ccc([S+](C)(=O)[O-])cc2)c2cnccn12", "solubility kinetic": "< 1"}, {"smiles": "CCNC(=O)N1CCCN(c2ccc(C(=O)NCCc3ccc(Cl)cc3Cl)cc2NC(=O)c2cccc(Cl)c2)CC1", "solubility kinetic": "< 1"}, {"smiles": "O=C(Nc1ncnc2sc3c(c12)CCC3)c1ccco1", "solubility kinetic": 11.5}, {"smiles": "CC(=O)N1CCN(c2nc(-c3ccc(Br)cc3)cs2)CC1", "solubility kinetic": "< 1"}, {"smiles": "Cc1c(-c2cccc3c(CCCOc4cccc5ccccc45)c(C(=O)O)n(Cc4cccnc4)c23)c(COc2ccc(N3CCN([S+](=O)([O-])N(C)C)CC3)cc2)nn1C", "solubility kinetic": "< 1"}, {"smiles": "CCOC(=O)Nc1ccc(NCc2ccc(F)cc2)nc1N", "solubility kinetic": 8.21}, {"smiles": "NC(=O)C1CCN(c2nc(-c3ccc(C(F)(F)F)cc3)cs2)CC1", "solubility kinetic": 1.98}, {"smiles": "C[C@]12CC[C@@H]3[C@H](CCC4=CC(=O)CC[C@]43C)[C@]1(O)CC[C@@]2(O)C(=O)CO", "solubility kinetic": "> 54"}, {"smiles": "CC(C)c1ccc(CC(=O)N2CCCc3ncc(C(=O)Nc4cccnc4)cc32)cc1", "solubility kinetic": 27.7}, {"smiles": "Cc1nc2sccn2c(=O)c1S(=O)(=O)Nc1ccc(N2CCN(S(C)(=O)=O)CC2)cc1", "solubility kinetic": 6.85}, {"smiles": "Cc1ccc(S(=O)(=O)Nc2cnccc2C(=O)Nc2cccc3ccccc23)cc1", "solubility kinetic": 46.4}, {"smiles": "CC(=O)c1ccc(-c2csc(N3CCC(C(N)=O)CC3)n2)cc1", "solubility kinetic": 6.11}, {"smiles": "O=C1Cc2cc(C(=O)c3ccco3)ccc2N1", "solubility kinetic": "> 34"}, {"smiles": "CCOc1ccccc1C(=O)Nc1ccncc1C(=O)Nc1cccc(S(=O)(=O)C(F)(F)F)c1", "solubility kinetic": "< 1"}, {"smiles": "O=C(Nc1ncc(Cc2ccc(C(F)(F)F)cc2)s1)c1ccc(-c2ccccc2[N+](=O)[O-])o1", "solubility kinetic": "< 1"}, {"smiles": "COc1ccc(OC)c(C(=O)Nc2nc(-c3ccccc3)cs2)c1", "solubility kinetic": "< 1"}, {"smiles": "COc1cccc(Nc2ncc(-c3cccc(N(C)C)c3)c3c2OCC3)c1", "solubility kinetic": "< 1"}, {"smiles": "CCc1ccc(-n2nc(C)c3c2NC(=O)CSC3c2ccccc2C)cc1", "note": "(stereo not drawn)", "solubility kinetic": 1.11}, {"smiles": "CC(C)c1ccc(OCc2nc3c(n2Cc2ccccc2)C(=O)N(CC2CCOCC2)CCN3)cc1", "solubility kinetic": "< 1"}, {"smiles": "CCOC(=O)C1CCN(c2ncc(-c3ccc4c(c3)OCCCO4)s2)CC1", "solubility kinetic": "< 1"}, {"smiles": "Cn1c(=O)c2c(-c3ccc(Br)cc3)n(CCc3ccccc3)cc2n(C)c1=O", "solubility kinetic": 14.7}, {"smiles": "COc1cccc(CNc2ccc(S(=O)(=O)Nc3nc(C)cs3)cc2)c1O", "solubility kinetic": 42.7}, {"smiles": "Cc1nc(-c2ccccc2)cc([C@H]2CN3CC[C@H]2C[C@@H]3CNC2CCOCC2)n1", "solubility kinetic": "> 58"}]}]}
